Assay results from US5602099A, “δ opioid receptor antagonists” (Aktiebolaget Astra, priority 1993, dated 1997).
Like-named read-outs stand apart in the source and are kept apart here. Peptide text beside a SMILES is read from it.

Legend:
[1] = target: T1, δ opioid receptors (Mus musculus, UniProt P32300); assay: Mouse vas deferens (MVD) bioassay, antagonism of electrically evoked contraction inhibition by δ-selective agonists; assay type: tissue-based; conditions: MVD assay, means of 3-8 determinations
T1 construct: Bioassays Using Isolated Organ Preparations; from tissue; host or cells: mouse vas deferens (isolated organ)
T1 sequence (P32300 whole entry): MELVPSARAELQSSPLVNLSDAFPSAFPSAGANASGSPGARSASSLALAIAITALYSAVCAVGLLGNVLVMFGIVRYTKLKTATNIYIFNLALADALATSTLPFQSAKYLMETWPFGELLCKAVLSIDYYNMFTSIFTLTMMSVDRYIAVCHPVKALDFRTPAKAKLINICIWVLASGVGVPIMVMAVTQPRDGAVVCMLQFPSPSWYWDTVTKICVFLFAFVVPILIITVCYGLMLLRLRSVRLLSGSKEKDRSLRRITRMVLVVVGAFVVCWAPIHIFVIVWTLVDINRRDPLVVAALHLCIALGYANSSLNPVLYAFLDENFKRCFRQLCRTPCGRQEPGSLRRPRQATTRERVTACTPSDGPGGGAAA
Excerpt: a) Biosassys based on inhibition of electrically evoked contractions of the mouse vas deferens (MVD) and of the guinea pig ileum (GPI). In the GPI assay the opioid effect is primarily mediated by μ opioid receptors, whereas in the MVD assay the inhibition of the contractions is mostly due to interaction with δ opioid receptors.
The GPI and MVD bioassays were carded out as reported in P. W. Schiller et al., Biochem. Biophys. Res. Commun 85, 1332-1338 (1978) and J. Di Maio et al., J. Med. Chem. 25, 1432-1438 (1982). A log dose-response curve was determind with [Leu^5 ]enkephalin as standard for each ileum and vas preparation, and IC50 values of the compounds being tested were normalized according to A. A Waterfield et al., Eur. J. Pharmacol. 58, 11-18 (1979). […] These determinations were made with the MVD assay, using three different δ-selective agonists ([Leu^5 ] enkephalin, DPDPE and [D-Ala^2 ]deltorphin I].

[2] = target: T2, δ opioid receptor (Rattus norvegicus, UniProt P33533); assay: δ opioid receptor binding assay, displacement of δ-selective radioligand from rat brain membranes; conditions: for Ki^μ /Ki^δ: δ-selectivity ratio
T2 construct: Male Sprague-Dawley rats (300-350 g) from the Canadian Breeding Laboratories were decapitated and after removal of the cerebellum the brains were homogenized; from tissue; host or cells: rat brain (without cerebellum) membranes, male Sprague-Dawley
T2 sequence (P33533 whole entry): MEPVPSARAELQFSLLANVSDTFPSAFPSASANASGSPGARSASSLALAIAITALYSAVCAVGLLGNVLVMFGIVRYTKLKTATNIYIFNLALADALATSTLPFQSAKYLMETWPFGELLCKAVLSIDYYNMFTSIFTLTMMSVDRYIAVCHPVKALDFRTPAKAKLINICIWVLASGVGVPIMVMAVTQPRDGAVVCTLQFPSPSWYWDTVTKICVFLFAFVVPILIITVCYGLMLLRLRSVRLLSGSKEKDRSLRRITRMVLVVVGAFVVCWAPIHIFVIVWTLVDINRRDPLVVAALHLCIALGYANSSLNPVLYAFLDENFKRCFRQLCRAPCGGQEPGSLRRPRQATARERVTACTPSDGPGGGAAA
Excerpt: (§1) In the case of κ-ligands guinea pig brain homogenates were used, since the relative proportion of κ-binding sites is higher in guinea pig brain than in rat brain. The experimental procedure being used in our laboratory represents a modified version of the binding assay described by Pasternak et al. (Mol. Pharmacol. 11, 340-351, (1975)). Male Sprague-Dawley rats (300-350 g) from the Canadian Breeding Laboratories were decapitated and after removal of the cerebellum the brains were homogenized in 30 volumes of ice-cold standard buffer (50 mM Tris-HCl, pH 7.7). After centrifugation at 30,000×g for 30 min at 4° C. the membranes were reconstituted in the original volume of standard buffer and incubated for 30 min at 37° C. (to realease bound endogenous ligands). […] The incubation was terminated by filtration through Batman GF/B filters under vacuum at 4° C. Following two washings with 5 ml portions of ice-cold standard buffer the filters were transferred to scintillation vials and treated with 1 ml Protosol (New England Nuclear) for 30 min prior to the addition of 0.5 ml acetic acid and 10 ml Aquasol (New England Nuclear). After shaking for 30 min the vials were counted at an efficiency of 40-45%. All experiments were performed in duplicates and repeated at least three times. […] Values of half-maximal inhibition (IC50) of specific binding were obtained graphically from semilogarithmic plots. From the measured IC50-values, binding inhibition constants (Ki) were then calculated based on Cheng and Prusoff's equation (Biochem, Pharmacol. 22, 3099-3102 (1973)). Ratios of the Ki -values in the μ-, δ- and κ-representative binding assays are a measure of the receptor selectivety of the compound under investigation (e.g. Ki^μ /Ki^δ indicates the selectivity for δ-receptors versus μ-receptors).

[3] = target: T3, μ opioid receptor (Rattus norvegicus, UniProt P33535); assay: μ opioid receptor binding assay, displacement of [3H]DAMGO from rat brain membranes
T3 construct: Male Sprague-Dawley rats (300-350 g) from the Canadian Breeding Laboratories were decapitated and after removal of the cerebellum the brains were homogenized; from tissue; host or cells: rat brain (without cerebellum) membranes, male Sprague-Dawley
T3 sequence (P33535 whole entry): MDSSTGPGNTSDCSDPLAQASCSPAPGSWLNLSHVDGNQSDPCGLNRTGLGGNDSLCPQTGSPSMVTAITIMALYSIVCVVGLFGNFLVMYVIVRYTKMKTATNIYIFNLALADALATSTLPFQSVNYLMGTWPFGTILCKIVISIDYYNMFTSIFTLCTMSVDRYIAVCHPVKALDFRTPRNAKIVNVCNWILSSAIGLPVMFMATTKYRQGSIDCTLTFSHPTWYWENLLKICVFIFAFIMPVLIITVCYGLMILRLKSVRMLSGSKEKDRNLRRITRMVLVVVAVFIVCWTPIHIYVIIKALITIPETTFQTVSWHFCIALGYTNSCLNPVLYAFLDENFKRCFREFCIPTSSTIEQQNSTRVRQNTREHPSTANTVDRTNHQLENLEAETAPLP
Excerpt: as §1

[4] = Ke (nM) against DPDPE, δ agonist DPDPE
[5] = Ke (nM) against [D-Ala2]deltorphin I, δ agonist [D-Ala2]deltorphin I
[6] = Ke (nM) against [Leu5]Enkephalin, δ agonist [Leu5]enkephalin
[7] = rat brain membranes, means of 3 determinations, read-out: Ki^.xi.
[8] = rat brain membranes, means of 3 determinations, read-out: Ki^μ
[9] = δ agonist DPDPE, read-out: Ke (nM) against DPDPE
[10] = δ agonist [D-Ala2]deltorphin I, read-out: Ke (nM) against [D-Ala2]deltorphin I
[11] = δ agonist [Leu5]enkephalin, read-out: Ke (nM) against [Leu5]Enkephalin

CC(C)[C@H](NC(=O)[C@H](Cc1ccccc1)NC(=O)[C@H](Cc1ccccc1)NC(=O)[C@@H]1Cc2ccccc2CN1C(=O)[C@@H](N)Cc1ccc(O)cc1)C(=O)N[C@H](C(=O)NCC(N)=O)C(C)C [HTyrTicPhePheValValGlyNH2, H-Tyr-Tic-Phe-Phe-Val-Val-Gly-NH2] (HELM PEPTIDE1{Y.[Tic].F.F.V.V.G.[am]}$$$$V2.0)
Kb [1, 4]: 6.36 nM
Kb [1, 5]: 4.96 nM
Kb [1, 6]: 6.48 nM
Ki [2]: 1.43 nM
Ki^μ /Ki^δ [2]: 2300
Ki [3]: 3290 nM

N[C@@H](Cc1ccc(O)cc1)C(=O)N1Cc2ccccc2C[C@H]1C(=O)N[C@@H](Cc1cccc2ccccc12)C(=O)N[C@@H](Cc1ccccc1)C(=O)O [HTyrTic-1-NalPheOH, H-Tyr-Tic-1-Nal-Phe-OH] (HELM PEPTIDE1{Y.[Tic].[O=C([C@H](Cc1cccc2ccccc12)N[*:1])[*:2]].F}$$$$V2.0)
Ki [2]: 1.14 nM
Ki^μ /Ki^δ [2]: 982
Ki [3]: 1120 nM

NC(=O)[C@H](CO)NC(=O)[C@@H]1CCCN1C(=O)[C@H](Cc1ccc(O)cc1)NC(=O)[C@H](Cc1ccccc1)NC(=O)[C@H](Cc1ccccc1)NC(=O)[C@@H]1Cc2ccccc2CN1C(=O)[C@@H](N)Cc1ccc(O)cc1 [HTyrTicPhePheTyrProSerNH2, H-Tyr-Tic-Phe-Phe-Tyr-Pro-Ser-NH2] (HELM PEPTIDE1{Y.[Tic].F.F.Y.P.S.[am]}$$$$V2.0)
Kb [1, 4]: 4.63 nM
Kb [1, 5]: 3.9 nM
Kb [1, 6]: 4.78 nM
Ki [2]: 0.9 nM
Ki^μ /Ki^δ [2]: 731
Ki [3]: 658 ± 136 nM

CCCCCCN[C@@H](Cc1ccc(O)cc1)C(=O)N1Cc2ccccc2C[C@H]1C(=O)N[C@@H](Cc1ccccc1)C(=O)N[C@@H](Cc1ccccc1)C(=O)O [Tyr(N^α Hex)-TicPhePheOH, Tyr(N^α Hex)-Tic-Phe-Phe-OH]
Kb [1, 4]: 4.28 nM
Kb [1, 5]: 10.6 nM
Kb [1, 6]: 9.37 nM
Ki [2]: 0.951 nM
Ki [3]: 1080 nM

N=C(N)NCCC[C@H](N)C(=O)N[C@@H](Cc1ccc(O)cc1)C(=O)N1Cc2ccccc2C[C@H]1C(=O)N[C@@H](Cc1ccccc1)C(=O)N[C@@H](Cc1ccccc1)C(N)=O [HArgTyrTicPhePheNH2, H-Arg-Tyr-Tic-Phe-Phe-NH2] (HELM PEPTIDE1{R.Y.[Tic].F.F.[am]}$$$$V2.0)
Ki [2, 7]: 4.79 nM
Ki^μ /Ki^δ [2]: 22.3
Ki [3, 8]: 107 ± 2 nM

CN(C[C@@H]1Cc2ccccc2CN1C(=O)[C@@H](N)Cc1ccc(O)cc1)[C@@H](Cc1ccccc1)C(=O)N[C@@H](Cc1ccccc1)C(=O)O [HTyrTic.psi.[CH2NCH3]PhePheOH, H-Tyr-Tic.PSI.[CH2 --NCH3 ]Phe-Phe-OH]
Kb [1, 9]: 4.76 nM
Kb [1, 10]: 2.89 nM
Kb [1, 11]: 6.28 nM
Ki [2, 7]: 0.842 nM
Ki [3, 8]: 13400 nM

N[C@@H](Cc1ccc(O)cc1)C(=O)N1Cc2ccccc2C[C@H]1C(=O)N[C@@H](Cc1c[nH]c2ccccc12)C(=O)N[C@@H](Cc1ccccc1)C(=O)O [HTyrTicTrpPheOH, H-Tyr-Tic-Trp-Phe-OH] (HELM PEPTIDE1{Y.[Tic].W.F}$$$$V2.0)
Kb [1, 4]: 2.56 nM
Kb [1, 5]: 1.65 nM
Kb [1, 6]: 2.37 nM
Ki^μ /Ki^δ [2]: 5950

Cc1cc(O)cc(C)c1C[C@H](N)C(=O)N1Cc2ccccc2C[C@H]1CN[C@@H](Cc1ccccc1)C(=O)N[C@@H](Cc1ccccc1)C(=O)O [HDmtTic.psi.[CH2NH]PhePheOH, H-Dmt-Tic.PSI.[CH2 --NH]Phe-Phe-OH]
Kb [1, 4]: 0.196 nM
Kb [1, 5]: 0.157 nM
Kb [1, 6]: 0.259 nM
Ki [2]: 1.7 nM
Ki [3]: 95.5 nM

N[C@@H](Cc1ccc(O)cc1)C(=O)N1Cc2ccccc2C[C@H]1C(=O)N[C@@H](CCc1ccccc1)C(=O)N[C@@H](Cc1ccccc1)C(=O)O [HTyrTicHfePheOH, H-Tyr-Tic-Hfe-Phe-OH] (HELM PEPTIDE1{Y.[Tic].[O=C([C@H](CCc1ccccc1)N[*:1])[*:2]].F}$$$$V2.0)
Kb [1, 4]: 0.609 nM
Kb [1, 5]: 0.408 nM
Kb [1, 6]: 1.23 nM
Ki [2]: 0.277 nM
Ki^μ /Ki^δ [2]: 7180
Ki [3]: 1990 nM

N[C@@H](Cc1ccc(O)cc1)C(=O)N1Cc2ccccc2C[C@H]1CN[C@@H](Cc1ccccc1)C(=O)O [HTyrTic-.psi.[CH2NH]PheOH, H-Tyr-Tic.PSI.[CH2 -NH]Phe-OH]
Kb [1, 9]: 9.06 nM
Kb [1, 10]: 8.24 nM
Kb [1, 11]: 9.12 nM
Ki [2, 7]: 1.94 nM
Ki [3, 8]: 10800 nM

N[C@@H](Cc1ccc(O)cc1)C(=O)N1Cc2ccccc2C[C@H]1C(=O)N[C@H](C(=O)N[C@@H](Cc1ccccc1)C(=O)O)c1ccccc1 [HTyrTicPhgPheOH, H-Tyr-Tic-Phg-Phe-OH] (HELM PEPTIDE1{Y.[Tic].[Phg].F}$$$$V2.0)
Kb [1, 4]: 21.5 nM
Kb [1, 5]: 8.31 nM
Kb [1, 6]: 13.8 nM
Ki [2]: 3.01 nM
Ki^μ /Ki^δ [2]: 9630
Ki [3]: 29000 nM

NC(=O)[C@H](Cc1ccccc1)NC(=O)[C@@H]1Cc2ccccc2CN1C(=O)[C@@H](N)Cc1ccc(O)cc1 [HTyrTicPheNH2, H-Tyr-Tic-Phe-NH2] (HELM PEPTIDE1{Y.[Tic].F.[am]}$$$$V2.0)
Kb [1, 4]: 96.8 nM
Kb [1, 5]: 58.9 nM
Kb [1, 6]: 43.9 nM
Ki^μ /Ki^δ [2]: 52.0

CN[C@@H](Cc1ccc(O)cc1)C(=O)N1Cc2ccccc2C[C@H]1C(=O)N[C@@H](Cc1ccccc1)C(=O)N[C@@H](Cc1ccccc1)C(=O)O [Tyr(N^α Me)-TicPhePheOH, Tyr(N^α Me)-Tic-Phe-Phe-OH] (HELM PEPTIDE1{[meY].[Tic].F.F}$$$$V2.0)
Kb [1, 4]: 1.22 nM
Kb [1, 5]: 0.436 nM
Kb [1, 6]: 1.01 nM
Ki [2]: 1.29 nM
Ki [3]: 13400 nM

N[C@@H](Cc1ccc(O)cc1)C(=O)N1Cc2ccccc2C[C@H]1C(=O)N[C@@H](Cc1c[nH]cn1)C(=O)N[C@@H](Cc1ccccc1)C(=O)O [HTyrTicHisPheOH, H-Tyr-Tic-His-Phe-OH] (HELM PEPTIDE1{Y.[Tic].H.F}$$$$V2.0)
Kb [1, 4]: 18.2 nM
Kb [1, 5]: 18.7 nM
Kb [1, 6]: 20.1 nM
Ki [2]: 1.48 nM
Ki^μ /Ki^δ [2]: 11500
Ki [3]: 17000 nM

NC(=O)[C@H](Cc1ccccc1)NC(=O)[C@H](Cc1ccccc1)NC(=O)[C@@H]1Cc2ccccc2CN1C(=O)[C@@H](N)Cc1ccc(O)cc1 [HTyrTicPhePheNH2, H-Tyr-Tic-Phe-Phe-NH2] (HELM PEPTIDE1{Y.[Tic].F.F.[am]}$$$$V2.0)
Kb [1, 5]: 14.4 nM
Kb [1, 6]: 15.7 nM
Kb [1, 9]: 18 nM
Ki [2, 7]: 3 nM
Ki [3, 8]: 78.8 nM

N[C@@H](Cc1ccc(O)cc1)C(=O)N1Cc2ccccc2C[C@H]1C(=O)N[C@@H](Cc1ccccc1)C(=O)O [HTyrTicPheOH, H-Tyr-Tic-Phe-OH] (HELM PEPTIDE1{Y.[Tic].F}$$$$V2.0)
Kb [1, 4]: 16.1 nM
Kb [1, 5]: 12.6 nM
Kb [1, 6]: 11.7 nM
Ki [2, 7]: 9.07 nM
Ki^μ /Ki^δ [2]: 141
Ki [3, 8]: 1280 nM

NC(=O)[C@H](Cc1c[nH]c2ccccc12)NC(=O)[C@H](Cc1ccccc1)NC(=O)[C@@H]1Cc2ccccc2CN1C(=O)[C@@H](N)Cc1ccc(O)cc1 [HTyrTicPheTrpNH2, H-Tyr-Tic-Phe-Trp-NH2] (HELM PEPTIDE1{Y.[Tic].F.W.[am]}$$$$V2.0)
Kb [1, 4]: 41.3 nM
Kb [1, 5]: 38.6 nM
Kb [1, 6]: 49.5 nM
Ki^μ /Ki^δ [2]: 258

N[C@@H](Cc1ccc(O)cc1)C(=O)N1Cc2ccccc2C[C@H]1C(=O)N[C@@H](Cc1ccc2ccccc2c1)C(=O)N[C@@H](Cc1ccccc1)C(=O)O [HTyrTic-2-NalPheOH, H-Tyr-Tic-2-Nal-Phe-OH] (HELM PEPTIDE1{Y.[Tic].[O=C([C@H](Cc1ccc2ccccc2c1)N[*:1])[*:2]].F}$$$$V2.0)
Kb [1, 4]: 4.41 nM
Kb [1, 5]: 4.17 nM
Kb [1, 6]: 2.64 nM
Ki [2]: 1.31 nM
Ki^μ /Ki^δ [2]: 4830
Ki [3]: 6330 nM
